EP2816108A1, “Transformed fungus with vitamin K dependent activity” (priority 2013, dated 2014)

Key:
[1] = system: Aspergillus nidulans strain YR 23.5; test: Vitamin K uptake in liquid cultures, viable versus heat-inactivated mycelium; assay type: cell-based; conditions: for Uptake (vitamin K / DW): active minus inactive
Description: Solid Media. Minimal media plates including vitamin K (vitamin K1, Fluka, 99%) were prepared. On top of the agar medium, sterile cellophane was placed to inhibit direct contact between the media and fungal cells. Spores of strain YR23.5 were plated in a concentration of ca. 10E+5 per plate. After 3 days of growth, harvesting was done by scraping off the mycelium from cellophane. Then the mycelium was frozen and pulverized in liquid nitrogen. The powder was subsequently lyophilised and sent for vitamin K analysis to LUFA-ITL (Landwirtschaftliche Untersuchungs- und Forschungsanstalt Institut für Tiergesundheit u Lebensmittelqualität GmbH, Kiel, Germany). Liquid media. The strain YR23.5 was pre-cultivated for 48 hours in 2 x 250 ml of liquid minimal media at 37°C, 180 rpm in Erlenmeyer flasks. Mycelium was harvested by filtration, washed and re-suspended in sterile minimal medium and separated into four equal aliquots of roughly 250 mg wet weight (corresponding to roughly 50 mg dry weight). Culture volume was set to 30 ml. Two of these cultures received different vitamin K amounts, final concentration: 0.5 mg/mL and 0.05 mg/mL vitamin K (Konakion, micelles suspension, Roche, 10 mg/mL) and were grown for further 8 hours. Mock controls were grown in parallel for 8 hours without receiving vitamin K. After the growth phase the fungal cells were inactivated by boiling in the microwave oven (3 x 5 min at max. energy level), and subsequently vitamin K was added to the mock controls (final concentration, 0.5 and 0.05 mg/mL vitamin K). The inactivated cultures were further incubated in the rotary shaker for 30 minutes. All cultures were harvested at the same time point. Harvested biomass was washed, frozen and ground in liquid nitrogen, lyophilised and sent for analysis to LUFA-ITL (Landwirtschaftliche Untersuchungs- und Forschungsanstalt Institut für Tiergesundheit u Lebensmittelqualität GmbH, Kiel, Germany).
The vitamin uptake ability of A.nidulans was studied with growth tests in Petri dishes. In addition, vit.K uptake and unspecific resorption of vit.K to the fungal cell wall was analyzed in liquid cultures. According to growth tests in Petri dishes, 752 µg of vitamin K was quantified in 100 mg DW (dry weight) of lyophilized fungal mycelium. However, due to the set-up of this experiment it remains unclear if the vitamin K is either attached to the cell wall or actively taken up into the fungal cell. To clarify this, a second growth test comparing viable and heat-inactivated mycelium was performed. […] The maximal amount of vit.K unspecifically attached to the cell wall is approximately 20 µg per 100 mg (dry weight) of fungal mycelium. The majority of vitamin K was found in viable cells. The viable mycelium was able to take up approximately 8% of the vitamin K supplied through the culture medium (Hill et al.), more precisely 1,14 mg / 100 mg mycelium from the […] vit.K supplied in total (Table 2). Table 2: Vitamin K1 updake ability of Aspergillus nidulans strain YR 23.5. Vitamin K was added to liquid cultures, the final concentration as indicated. Fungal mycelium was inactivated by boiling in a microwave oven. Values which were obtained with inactivated fungal cell mass indicate the unspecific association of vitamin K to the fungal mycelium.

[2] = system: Aspergillus nidulans strain YR23.5; test: Vitamin K growth test on solid media (Petri dishes), vitamin K quantified in lyophilised mycelium; assay type: cell-based; conditions: in 100 mg DW (dry weight) of lyophilized fungal mycelium; growth tests in Petri dishes, 3 days
Description: Solid Media. Minimal media plates including vitamin K (vitamin K1, Fluka, 99%) were prepared. On top of the agar medium, sterile cellophane was placed to inhibit direct contact between the media and fungal cells. Spores of strain YR23.5 were plated in a concentration of ca. 10E+5 per plate. After 3 days of growth, harvesting was done by scraping off the mycelium from cellophane. Then the mycelium was frozen and pulverized in liquid nitrogen. The powder was subsequently lyophilised and sent for vitamin K analysis to LUFA-ITL (Landwirtschaftliche Untersuchungs- und Forschungsanstalt Institut für Tiergesundheit u Lebensmittelqualität GmbH, Kiel, Germany). Liquid media. The strain YR23.5 was pre-cultivated for 48 hours in 2 x 250 ml of liquid minimal media at 37°C, 180 rpm in Erlenmeyer flasks. Mycelium was harvested by filtration, washed and re-suspended in sterile minimal medium and separated into four equal aliquots of roughly 250 mg wet weight (corresponding to roughly 50 mg dry weight). Culture volume was set to 30 ml. […]
The vitamin uptake ability of A.nidulans was studied with growth tests in Petri dishes. In addition, vit.K uptake and unspecific resorption of vit.K to the fungal cell wall was analyzed in liquid cultures. According to growth tests in Petri dishes, 752 µg of vitamin K was quantified in 100 mg DW (dry weight) of lyophilized fungal mycelium. […]

For CC1=C(C/C=C(\C)CCC[C@H](C)CCC[C@H](C)CCCC(C)C)C(=O)c2ccccc2C1=O [vitamin K, vitamin K1], the “Uptake (vitamin K / DW)” value ([1]; fungal cell mass active, vitamin K added 50 µg/ml) was 169,1 µg/100 mg, the “Absolute quantities (vitamin K / DW)” value ([1]; fungal cell mass active, vitamin K added 50 µg/ml, liquid culture, 8 hours) was 183,0 µg/100 mg and the “Uptake (vitamin K / DW)” value ([1]; fungal cell mass active, vitamin K added 500 µg/ml) was 1122,1 µg/100 mg. For the same molecule, the “Absolute quantities (vitamin K / DW)” value ([1]; fungal cell mass active, vitamin K added 500 µg/ml, liquid culture, 8 hours, DW = fungal mycelium (dry weight)) was 1140,0 µg/100 mg, the “Absolute quantities (vitamin K / DW)” value ([1]; fungal cell mass inactive (boiled in microwave oven), vitamin K added 50 µg/ml, unspecific association with mycelium) was 13,9 µg/100 mg and the “Absolute quantities (vitamin K / DW)” value ([1]; fungal cell mass inactive (boiled in microwave oven), vitamin K added 500 µg/ml, unspecific association with mycelium) was 17,9 µg/100 mg. For the same molecule, the “maximal amount of vit.K unspecifically attached to the cell wall” value ([1]; per 100 mg (dry weight) of fungal mycelium, inactivated cultures) was “approximately 20 µg per 100 mg”, the “vitamin K taken up of the vitamin K supplied through the culture medium” value ([1]; viable mycelium) was “approximately 8%” and the “vitamin K taken up by viable mycelium” value ([1]; viable mycelium, from the 50 mg vit.K supplied in total) was 1,14 mg / 100 mg mycelium. For the same molecule, the “vitamin K quantified in lyophilized fungal mycelium” value [2] was 752 µg.
